# Like-named read-outs stand apart in the source and are kept apart here.
# Legend:
# Format in all cases: biochemical
# FXIIIa = target: T1, FXIIIa (Homo sapiens, UniProt P00488); test: Primary FXIIIa screening assay (cross-linking of biotinylated fibrinogen and immobilized fibronectin)
# T1 sequence (P00488 39-732 limits assumed): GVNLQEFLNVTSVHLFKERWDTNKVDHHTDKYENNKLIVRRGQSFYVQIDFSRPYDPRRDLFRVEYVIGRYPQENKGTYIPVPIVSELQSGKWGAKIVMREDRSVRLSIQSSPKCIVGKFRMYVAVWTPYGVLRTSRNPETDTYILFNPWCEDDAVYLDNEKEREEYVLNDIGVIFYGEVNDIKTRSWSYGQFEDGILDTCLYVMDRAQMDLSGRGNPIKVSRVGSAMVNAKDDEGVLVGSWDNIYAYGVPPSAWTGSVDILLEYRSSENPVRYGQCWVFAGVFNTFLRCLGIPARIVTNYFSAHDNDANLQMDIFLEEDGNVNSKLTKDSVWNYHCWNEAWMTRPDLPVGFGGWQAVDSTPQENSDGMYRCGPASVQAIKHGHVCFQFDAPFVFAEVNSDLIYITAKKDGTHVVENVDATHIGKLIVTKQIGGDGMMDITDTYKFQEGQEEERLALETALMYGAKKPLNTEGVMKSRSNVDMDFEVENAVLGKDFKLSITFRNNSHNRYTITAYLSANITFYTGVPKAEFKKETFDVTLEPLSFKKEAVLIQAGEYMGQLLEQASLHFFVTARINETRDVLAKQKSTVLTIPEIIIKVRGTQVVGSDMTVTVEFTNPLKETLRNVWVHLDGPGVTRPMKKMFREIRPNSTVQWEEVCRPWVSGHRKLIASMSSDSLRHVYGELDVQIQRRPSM
# Method: The primary FXIIIa screening assay used a 96-well high throughput assay format. This assay assesses test sample inhibition of FXIIIa catalyzed cross-linking of biotinylated fibrinogen and immobilized fibronectin.
# Test samples (possibly containing FXIIIa inhibitors) were added to 96-well plates coated with fibronectin, followed by the addition of FXIIIa, as described in the primary FXIIIa screening assay, below. Biotinylated fibrinogen was added to the wells, and streptavidin-alkaline phosphatase was used to detect biotinylated fibrinogen that had been cross-linked to fibronectin.
# Purified fibronectin was diluted to 1 μg/ml in 0.1M Na2 CO3, pH 9.7, and added to control and test assay wells of 96-well plates at 100 μl/well. All wells were incubated overnight at 4° C.
# After incubation, the plate wells were washed twice with 200 μl/well of wash buffer per wash to remove all fibronectin not bound to the wells. The wash buffer contained 0.135M NaCl, 2.7 mM KCl, 25 mM Tris at about pH 7.4, and 0.1% Tween 20® (Sigma Chemical Co., St. Louis, Mo.; polyoxyethylenesorbitan monolaurate). The plate wells were then blocked with 200 μl/well blocking buffer and incubated for 1-2 h at 37° C. The blocking buffer contained 0.135M NaCl, 2.7 mM KCl, 25 mM Tris at about pH 7.4, 0.1% Tween 20®, and 0.5% BSA (bovine serum albumin, Sigma fraction V; Sigma). After incubation, the plates wells were again washed with 200 μl/well of wash buffer to remove excess blocking buffer.
# Briefly, fibrinogen was dialyzed against 0.1M NaHCO3, pH 8.5 (coupling buffer) at a concentration of 1 mg/ml. BNHS was dissolved in dimethylformamide at a concentration of 1.7 mg/ml, and added to fibrinogen in coupling buffer at a ratio of 30 μl BNHS to 1 ml fibrinogen. The mixture was incubated with rocking for 4 h at room temperature, dialyzed against PBS, and stored in aliquots at -80° C.
# Biotinylated fibrinogen (40 μl of 20 μg/ml solution) was added to each plate well. Except in control wells (which received 10 μl of 10% DMSO alone), 10 μl of each of the 11,198 crude extracts in 10% DMSO were added to duplicate wells after the addition of biotinylated fibrinogen, resulting in a 1% final assay concentration of DMSO.
# FXIIIa (recombinant human FXIIIa2 (ZymoGenetics), as described in European Patent No. 0 268 772, granted Apr. 26, 1995, and incorporated herein by reference) was diluted to 100 μg/ml in a solution of 50 mM Tris, 5 mM CaCl2 at pH 7.4 containing 1 unit/ml thrombin (bovine; Enzyme Research Labs) and incubated for 20 min at 37° C. FXIIIa then was diluted to 1 μg/ml in a cross-linking buffer consisting of the blocking buffer described above plus 20 mM CaCl2 and 75 ng/ml D-phenylalanyl-L-prolyl-L-arginine chloromethyl ketone (PPACK; Calbiochem, La Jolla, Calif.). Fifty microliters of FXIIIa in cross-linking buffer was added to each test and control well. All wells then were incubated for about 10 min at 37° C.
# After incubation, the wells were washed twice with 200 μl/well of wash buffer to remove all biotinylated fibrinogen that was not cross-linked to fibronectin.
# [1] = target: T2, tissue transglutaminase (tTG) (Cavia cutleri, UniProt P08587); test: tTG screening assay
# T2 construct: purchased Sigma
# T2 sequence (P08587 1-690): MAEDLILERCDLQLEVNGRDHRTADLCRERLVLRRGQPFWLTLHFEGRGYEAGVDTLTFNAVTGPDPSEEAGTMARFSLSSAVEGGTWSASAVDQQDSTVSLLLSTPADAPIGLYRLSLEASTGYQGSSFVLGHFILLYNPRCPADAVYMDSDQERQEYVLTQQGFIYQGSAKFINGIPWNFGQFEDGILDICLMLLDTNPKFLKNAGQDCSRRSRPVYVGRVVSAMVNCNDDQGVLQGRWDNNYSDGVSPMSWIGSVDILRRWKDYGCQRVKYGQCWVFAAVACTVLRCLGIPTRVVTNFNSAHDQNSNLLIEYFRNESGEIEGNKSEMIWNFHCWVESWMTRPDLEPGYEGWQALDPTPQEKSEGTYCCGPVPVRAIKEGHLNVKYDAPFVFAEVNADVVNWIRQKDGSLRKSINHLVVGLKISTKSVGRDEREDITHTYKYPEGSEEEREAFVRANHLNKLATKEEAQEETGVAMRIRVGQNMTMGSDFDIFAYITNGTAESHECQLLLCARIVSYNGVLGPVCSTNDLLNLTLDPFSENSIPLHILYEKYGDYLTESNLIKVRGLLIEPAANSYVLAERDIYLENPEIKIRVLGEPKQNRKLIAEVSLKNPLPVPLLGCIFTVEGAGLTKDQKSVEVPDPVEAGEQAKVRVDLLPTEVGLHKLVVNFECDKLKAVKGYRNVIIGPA
# Description: Because FXIII is a member of the tissue transglutaminase (tTG) family, all potential FXIIIa inhibitors identified in the primary FXIIIa screening assay were further screened for tTG (non-FXIII-specific) inhibitory activity. The tTG screening assay was identical to the primary FXIIIa screening assay, except that tTG (Sigma) was used instead of FXIIIa and no thrombin or PPACK was used.
# The determination of IC50 values was done the same as in the primary FXIIIa screening assay, except that purified compounds were used at varying concentrations (instead of crude culture extracts). The IC50 values allow one to make comparisons of one compound to another.
# papain = target: T3, papain (Carica papaya, UniProt P00784); test: Papain inhibition assay; settings: for Papain inhibition (result in words, IC50 table): 100 μM to 10 nM, 30 min at 37° C.
# T3 construct: purchased Boehringer Mannheim
# T3 sequence (P00784 134-345): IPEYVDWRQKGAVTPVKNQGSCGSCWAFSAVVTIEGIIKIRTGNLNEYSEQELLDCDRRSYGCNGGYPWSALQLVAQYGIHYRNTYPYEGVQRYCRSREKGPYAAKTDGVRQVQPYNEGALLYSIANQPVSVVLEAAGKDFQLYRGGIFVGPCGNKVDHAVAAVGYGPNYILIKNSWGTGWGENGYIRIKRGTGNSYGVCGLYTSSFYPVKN
# Method: For the papain inhibition assay, a buffer containing 0.1M NaPO4 and 2.5 mM EDTA at about pH 7.0 was used. An Azocoll™ solution was prepared by adding 5 mg Azocoll™ (Calbiochem; an insoluble, powdered cowhide to which a bright red dye is attached (azo-dye-bound collagen)) to the buffer while stirring. The Azocoll was prewarmed to about 37° C. 10 μl of 0.1M L-cysteine, 10 μl of 50 μg/ml papain (Boehringer Mannheim), 0.5 ml of Azocoll solution, and 50 μl of one of a series of concentrations of ZG-1400a, iodoacetamide, iodoacetic acid, cerulenin, or 50 μl of the DMSO or ethanol negative controls were added to duplicate 13×75 mm glass tubes. The ZG-1400a, iodoacetamide, and iodoacetic acid were individually prepared in 10% DMSO and tested using half-log dilutions, starting at a final assay concentration of 100 μM and diluting to 10 nM. Cerulenin was prepared in 10% ethanol and tested using half-log dilutions, starting at a final assay concentration of 100 μM and diluting to 10 nM. A negative (no inhibition) control for ZG-1400a, iodoacetamide and iodoacetic acid was 50 μl of 10% DMSO to give a final assay concentration of 1% DMSO in each control tube. A negative control for cerulenin was 50 μl of 10% ethanol to give a final assay concentration of 1% ethanol in each control tube. The test and control tubes then were incubated for 30 min at 37° C. in an agitated water bath.
# After incubation, all of the tubes were centrifuged at 2000 RPM for 5 min. The supernatant was removed and its absorbance was read at 520 nm on a Beckman DU640 spectrophotometer to determine the amount of papain inhibition.
# [2] = purified compound, read-out: IC50 FXIIIa Primary Screen
# [3] = purified compound, read-out: IC50 tTG Screen
SMILES,IC50 (FXIIIa; [2]) [µM],"IC50 [1, 3] [µM]","Papain inhibition (result in words, IC50 table) (papain)","Papain inhibition (result in words, IC50 table) (papain; listed as cerulenin)",inhibition of FXIIIa (FXIIIa; 0.01X concentration),inhibition of tTG ([1]; 0.01X concentration),inhibition of tTG ([1]; 0.1X concentration),"Papain inhibition (result in words, IC50 table) (papain; listed as ZG-1400a)","Papain inhibition (result in words, IC50 table) (papain; listed as ZG-1440)",IC50 (FXIIIa) [µM],IC50 [1] [µM],IC50 (papain) [µM]
"CC=CCC=CCCC(=O)C1OC1C(N)=O (stereo not drawn) [Cerulenin, 2,3-epoxy-4-oxo-7,10-dodecadienamide]",29,25,No inhibition,did not inhibit papain activity,–,–,–,–,–,–,–,–
"C[C@@H]1CCC/C=C\C(=O)Cc2cc(O)cc(O)c2C(=O)O1 [ZG-1400, R(-) enantiomer of cis-resorcylide]",5.7,3.1,–,–,about 65%,about 95%,about 70%,did not inhibit papain activity,No inhibition,–,–,–
"NC(=O)CI [Iodoacetamide, iodoacetamide]",–,–,did cause inhibition,–,–,–,–,–,–,320,10,0.01

# Reference: patent US5710174A, “Factor XIIIA inhibitor” (Zymo Genetics, Inc., priority 1995, dated 1998)
